We go through three compounds from patent publication US20220168442A1, “ARTIFICIAL T-CELL STIMULATING MATRIX FOR IMMUNOTHERAPY” (The Johns Hopkins University, priority 2019, published 2022).

Ends that are not written are not given here.

Holding throughout (assay type): cell-based, mouse
In one test the test system is murine CD8+ T cells. Description: aLN ex vivo CD8+ T cell expansion and phenotype, day 7. As for the experimental part: Artificial lymph nodes (aLNs) were synthesized by mixing 0.8 w/v % thiolated HA with either 0.1 or 2 w/v % of the crosslinker PEG-diacrylate (PEGDA), which was pre-mixed with 5 μg/mL thiolated anti-CD3 and anti-CD28 antibodies, and either no protein, 100 μM cyclic RGD, or 20 μg/mL laminin was added. Isolated murine CD8+ T cells were added to the surface of the aLNs. On day 7 viable cells were harvested, counted, and stained for phenotypic markers for flow cytometry (CD8, CD44, CD62L). For in vivo experiments, B6 mice received subcutaneous injection of aLN treatment (no protein, 570 Pa, with antigen-specific stimulation from KbSIY for 2C CD8+ T cells) or PBS. 2C CD8+ T cells were isolated, labeled with CellTrace CFSE dye and injected retro-orbitally on the same day. On days 3 and 6, blood samples were taken for CFSE division analysis via flow cytometry.

Another test has as its system B6 CD8+ T cells. Put plainly: CD8+ T cell fold expansion after seven days of stimulation on aTM. As to conditions: added to culture on 0.5-kPa aTM; 100 μM; same amount of stimulatory ligand. As for the experimental part:
Murine cells were obtained from adult mouse lymph nodes and spleens. Obtained cells were treated with ACK lysing buffer to lyse red blood cells and filtered through cell strainers to isolate splenocytes. PBMCs from healthy donors were isolated by Ficoll-Paque PLUS gradient centrifugation (GE Healthcare). CD8+T lymphocytes were then isolated from splenocytes or PBMCs by negative selection using CD8+ isolation kits and magnetic columns from Miltenyi Biotech (Auburn, Calif., USA) according to the manufacturer's protocol. […]
CD8+ T cells were isolated as previous described and resuspended in 1 mL T cell culture media. […] The CFSE fluorescence intensity was measured using BD FACSCALIBUR™ flow cytometer. Cell proliferation was analyzed using FLOWJO™ with diluted CFSE fluorescence peaks signifying population after each round of cell division. A subset of the cells were allowed to expand for 7 days and viable cells were counted with a hemocytometer to determine fold expansion. […]

The next test concerns PMEL CD8+ T cells. Put plainly: aTM with laminin or cyclic RGD attached, T cell expansion. The following applies: laminin 20 μg/mL or cyclic RGD 100 μM incorporated into aTM. As for the experimental part: HA solution was prepared as previously described. Anti-CD3 and anti-CD28 antibodies were purchased respectively from BioXCell (145-2C11; West Lebanon, N.H., USA) and BioLegend (37.51; San Diego, Calif., USA). […] PEGDA crosslinker was added to reduced MHC-Ig dimers, anti-CD3 and anti-CD28 antibody solutions to a final concentration of 0.5% PEGDA for preparation for crosslinking. Prior to hydrogel formation, MHC-Ig dimers or anti-CD3 antibodies and anti-CD28 co-stimulatory signals with 0.5% PEGDA were added to the HA solution to directly attach signals on HA through thiol-diene chemistry. The HA-antibody solution was then mixed with PEGDA crosslinker at a 4:1 ratio to be plated. The aTM was allowed to form within flat-bottomed tissue culture plates to form a complete layer for at least 1 hour prior to washing 3 times with 1×PBS to remove any unbound stimulatory signal, and cells were subsequently plated. To investigate the effects of extracellular matrix (ECM) protein attachment, cyclic RGD (CCRRGDWLC (SEQ ID NO: 1)), which was synthesized by solid phase methods as described previously (Li et al., Stem Cells Transl. Med., 3: 662-670 (2014)), or laminin (ThermoFisher) were added to make a HA solution with protein concentration of 100 μM and 20 μg/mL, respectively, prior to the hydrogel formation. […]

Consider laminin, for which the “percent activated T cells” value with murine CD8+ T cells (570-Pa aLN, day 7) is listed as “increased”.

Consider `Cc1ccc2c(c1)C(=O)C1(O)CCN(c3ccccc3)C1=N2` (centres unmarked) [blebbistatin], for which the “CD8+ T cell expansion in the presence of the inhibitor” value in the test with B6 CD8+ T cells is given as “abolished”.

Take “CCRRGDWLC (SEQ ID NO: 1) (also: cyclic (mode not given here)) [cyclic RGD cell-adhesive peptide attached to aTM / aLN]”: the “effect of cell-adhesive ligands on stimulation of antigen-specific PMEL CD8+ T cells” value in the test with PMEL CD8+ T cells is “further increased T cell proliferation”. Further, in the test with murine CD8+ T cells (570-Pa aLN, day 7), the “percent memory T cells” value is “increased”. Also, the “total expansion compared to no protein and laminin” value with murine CD8+ T cells (attached to softer aLNs) is on record as “nearly doubled total expansion”.
